Laboratory results published in patent publication US20150165000A1, “COMPOSITION FOR THERMOSTABILIZATION OF HUMAN SERUM ALBUMIN AND METHOD OF PREPARING THERMALLY STABILIZED HUMAN SERUM ALBUMIN USING THE SAME” (Ewha University - Industry Collaboration Foundation, priority 2012, published 2015).

Key:
[1] = target: T1, human serum albumin (Homo sapiens, UniProt P02768); assay: Thermal denaturation of human serum albumin solution: check of precipitation during heating; format: physicochemical
T1 construct: the single supply source of human serum albumin is currently the blood of humans; purchased Sigma-Aldrich A3782
Experimental: Thus, the present inventors estimated oleic acid affecting stability depending on the temperature. […] Specifically, while the temperature was maintained at 65° C., 70° C. and 75° C., whether the precipitation was formed due to denaturation of protein was checked at intervals of 30 min, 5 min and 3 min, respectively.
Thermostabilizing effects were evaluated at 70° C. using other C18 fatty acids including stearic acid, linoleic acid, α-linolenic acid and γ-linolenic acid, as well as oleic acid, in the same manner as in Example 6.1. for testing of stability against denaturation due to thermal treatment using oleic acid.
Thermostabilizing effects at 65° C. were evaluated using C16 fatty acids including palmitic acid and palmitoleic acid, as well as oleic acid as the C18 fatty acid, in the same manner as in Examples 6.1. and 6.2. for testing of stability against degeneration due to thermal treatment using various C18 fatty acids including oleic acid. The samples were warmed to 65° C. and observed at an interval of 5 min.
Thermostabilizing effects at 65° C. were evaluated using EPA (eicosapentaenoic acid) and DHA (docosahexanoic acid) as C20 and C22 fatty acids, as well as oleic acid as the C18 fatty acid, in the same manner as in Examples 6.1. to 6.3. for testing of stability against denaturation due to thermal treatment using various C16 and C18 fatty acids.

[2] = target: T1, human serum albumin; assay: Structural stability against thermal treatment: secondary structure composition from circular dichroism; format: physicochemical; conditions: for structural stability (ratio of α-helix / circular dichroism spectrum), in words / structural stability (ratio of α-helix by circular dichroism), in words: albumin 1 mg/mL
Experimental: The composition of the secondary structure of protein may be estimated using circular dichroism, and thus changes in structure of the thermally denatured protein may be measured.
Measurement of circular dichroism was performed three times under conditions of a data pitch of 0.2 nm, a band width of 1.0 nm, a response time of 4 sec, and a scanning speed of 50 nm/min using a quartz cuvette having a path length of 0.1 cm by use of Jasco J-715 spectropolarimeter. The composition of the secondary structure was assayed from the measured circular dichroism values using SELCON3 program contained in the Dicroprot program.

T1 sequence (P02768 25-609): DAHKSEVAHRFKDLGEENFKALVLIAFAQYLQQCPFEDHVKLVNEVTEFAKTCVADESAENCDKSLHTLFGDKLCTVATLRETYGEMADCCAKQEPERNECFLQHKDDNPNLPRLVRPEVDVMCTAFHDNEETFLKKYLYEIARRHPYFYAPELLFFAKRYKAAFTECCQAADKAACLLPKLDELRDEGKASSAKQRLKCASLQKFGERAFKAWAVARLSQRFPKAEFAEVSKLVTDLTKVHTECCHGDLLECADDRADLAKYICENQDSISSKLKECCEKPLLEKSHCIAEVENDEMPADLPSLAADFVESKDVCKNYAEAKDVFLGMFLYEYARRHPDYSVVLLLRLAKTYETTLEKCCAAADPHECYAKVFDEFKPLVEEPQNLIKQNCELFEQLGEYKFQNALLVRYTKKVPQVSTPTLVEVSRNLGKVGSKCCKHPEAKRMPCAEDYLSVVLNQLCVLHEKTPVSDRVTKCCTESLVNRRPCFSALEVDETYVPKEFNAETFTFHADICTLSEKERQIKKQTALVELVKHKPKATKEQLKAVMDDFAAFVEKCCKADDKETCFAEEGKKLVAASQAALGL

## CC/C=C\C/C=C\C/C=C\C/C=C\C/C=C\C/C=C\CCC(=O)O [DHA, (4Z,7Z,10Z,13Z,16Z,19Z)-docosa-4,7,10,13,16,19-hexaenoic acid]
[1]; 65° C., albumin 50 mg/mL, Examples 6.3, 6.4
  stability against denaturation due to thermal treatment compared to the human serum albumin control: much higher

## CCCCC/C=C\C/C=C\CCCCCCCC(=O)O [linoleic acid]
[2]; heated at 70° C. for 10 hr
  structural stability (ratio of α-helix / circular dichroism spectrum), in words: maintained

## CCCCCCCC/C=C\CCCCCCCC(=O)O [oleic acid]
[1]; 60° C., albumin 50 mg/mL, fatty acid 1:1
  time for which denaturation was not observed: ≥ 10 h
[1]; 65° C., albumin 50 mg/mL, fatty acid 1:1
  time for which denaturation did not occur: about 6 hr
[1]; 65° C., albumin 50 mg/mL, Example 6.1
  time after which precipitation began to form: 330 min
[1]; 70° C.
  period of time maintained stably compared to the fatty acid-free human serum albumin solution: two times as long or more
[1]; 70° C., albumin 50 mg/mL, Example 6.1
  time after which precipitation began to form: 30 min
[1]; 75° C., albumin 50 mg/mL, Example 6.1
  difference between the control and the test group: no difference
[2]; heated at 60° C. for 10 hr
  structural stability (ratio of α-helix by circular dichroism), in words: maintained
[2]; heated at 70° C. for 10 hr
  structural stability (ratio of α-helix / circular dichroism spectrum), in words: maintained
[2]; heated at 70° C. for 10 hr, albumin 1 to 40 mg/mL, Example 8
  structural stability (circular dichroism spectrum), in words: stability thereof was maintained
[2]; heated at 80° C. for 10 hr
  structural stability (ratio of α-helix by circular dichroism), in words: deteriorated

## CCCCCCC=CCCCCCCCC(=O)O [palmitoleic acid, hexadec-9-enoic acid]
[2]; heated at 70° C. for 10 hr
  structural stability (ratio of α-helix / circular dichroism spectrum), in words: maintained

## CC/C=C\C/C=C\C/C=C\CCCCCCCC(=O)O [α-linolenic acid, all-cis-9,12,15-octadecatrienoic acid]
[2]; heated at 70° C. for 10 hr
  structural stability (ratio of α-helix / circular dichroism spectrum), in words: maintained

## CCCCC/C=C\C/C=C\C/C=C\CCCCC(=O)O [γ-linolenic acid]
[2]; heated at 70° C. for 10 hr
  structural stability (ratio of α-helix / circular dichroism spectrum), in words: maintained
